The target in assay [1] is recombinant human MEK 1 (MAPKK) and recombinant human ERK2 (MAPK). As to the kind of experiment: Mitogen Activated Protein Kinase (MAPK) assay, two component coupled MEK 1 / ERK2.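 Further: MEK 1-activated ERK2 phosphorylates MBP or Myc peptide with 33P-ATP, filter capture and scintillation counting, inhibitor preincubated with ERK2 30 min at 0 °C, inhibition relative to uninhibited control.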 The class given is biochemical. The conditions noted are these: separate entries for the same compound = evaluated more than one time.
The target in assay [2] is T1, Kinase insert Domain containing Receptor (KDR: the catalytic domain of the VEGF receptor) (Homo sapiens, UniProt P35968).
T1 construct: KDR: the catalytic domain of the VEGF receptor
T1 sequence (P35968 834-1162 limits assumed): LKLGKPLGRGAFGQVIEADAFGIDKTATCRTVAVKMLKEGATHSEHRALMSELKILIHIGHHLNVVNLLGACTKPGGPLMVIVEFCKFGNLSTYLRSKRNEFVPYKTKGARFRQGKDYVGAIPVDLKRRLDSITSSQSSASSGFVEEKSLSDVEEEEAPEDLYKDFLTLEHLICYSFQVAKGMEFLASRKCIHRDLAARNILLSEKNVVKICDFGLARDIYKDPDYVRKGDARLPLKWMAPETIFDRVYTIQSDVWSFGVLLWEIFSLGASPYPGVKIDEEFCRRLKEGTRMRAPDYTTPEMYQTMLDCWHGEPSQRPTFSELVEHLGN
As to the kind of experiment: Inhibition of Kinase insert Domain containing Receptor (KDR).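 Further: KDR phosphorylating a Glu:Tyr 4:1 copolymer with P32- or P33-labelled ATP, Mg++ and vanadate, read as acid-insoluble radiolabel, compared with compound-free reaction.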 The class given is biochemical.
Experimental: In this standard pharmacological test procedure, KDR protein is mixed, in the presence or absence of a inhibitor compound, with a substrate peptide to be phosphorylated (a copolymer of glutamic acid and tyrosine, E:Y :: 4:1) and other cofactors such as Mg^++ and sodium vanadate (a protein tyrosine phosphatase inhibitor) in an appropriate buffer to maintain pH (7.2). ATP and a radioactive tracer (either P^32-or P^33- labeled ATP) is then add to initiate phosphorylation. After incubation, the radioactive phosphate associated with the acid-insoluble fraction of the assay mixture is then quantified as reflection of substrate phosphorylation.

The test system of assay [3] is SKBR3. As to the kind of experiment: Inhibition of cancer cell growth as measured by cell number, SKBR3.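 On all read-outs here: SK-BR-3 cells were selected as a line overexpressing HER2/neu.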 The class given is cell-based, human. The conditions noted are these: Table 8; for IC50: Homo sapiens.
Text: (§1) The cell lines were chosen since they overexpressed epidermal growth factor receptor (EGFR) (i.e. A431) or HER2/neu (SKBR3), or had little to no expression of the these receptors (SW620, LOX, MCF7).
Assay [4] relates to SW620. As to the kind of experiment: Inhibition of cancer cell growth as measured by cell number, SW620.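 On all read-outs here: SW620 was included as a cell line with little or no EGFR or HER2/neu expression, in contrast to receptor-overexpressing lines.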 The class given is cell-based, human. The conditions noted are these: Table 8; for IC50: Homo sapiens, SW-620, 48 h.
Text: as §1
In assay [5] the test system is A431. As to the kind of experiment: Inhibition of cancer cell growth as measured by cell number, A431.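 Further: human A431 line, picked because it overexpresses epidermal growth factor receptor (EGFR).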 The class given is cell-based, human. The conditions noted are these: Homo sapiens, A-431, 48 h, cell number, Sulforhodamine B, 48 hours exposure; Table 8; read-out: IC50 A431.
Text: as §1
In assay [6] the test system is MCF7. As to the kind of experiment: Inhibition of cancer cell growth as measured by cell number, MCF7.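 Further: MCF7 was included as a line with little or no EGFR or HER2/neu expression, in contrast to the receptor-overexpressing lines of the panel.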 The class given is cell-based, human. The settings on record: Homo sapiens, MCF7, 48 h, cell number, Sulforhodamine B, 48 hours exposure; Table 8; read-out: IC50 MCF7.
Text: as §1
For assay [7], the system named is LOX. As to the kind of experiment: Inhibition of cancer cell growth as measured by cell number, LOX.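 Further: LOX cells served as a line with low or absent EGFR and HER2/neu expression, in contrast to receptor-overexpressing lines.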 The class given is cell-based, human. The settings on record: Homo sapiens, LOX, 48 h, cell number, Sulforhodamine B, 48 hours exposure; Table 8; read-out: IC50 LOX.
Text: as §1
For assay [8], the target named is T2, His-tagged cytoplasmic domain of EGFR (Homo sapiens, UniProt P00533).
T2 construct: containing the EGFR cDNA encoding amino acids 645 - 1186 preceded by Met-Ala-(His)6; made in house; host or cells: Sf9 cells, recombinant baculovirus vHcEGFR52
T2 sequence (P00533 669-1210): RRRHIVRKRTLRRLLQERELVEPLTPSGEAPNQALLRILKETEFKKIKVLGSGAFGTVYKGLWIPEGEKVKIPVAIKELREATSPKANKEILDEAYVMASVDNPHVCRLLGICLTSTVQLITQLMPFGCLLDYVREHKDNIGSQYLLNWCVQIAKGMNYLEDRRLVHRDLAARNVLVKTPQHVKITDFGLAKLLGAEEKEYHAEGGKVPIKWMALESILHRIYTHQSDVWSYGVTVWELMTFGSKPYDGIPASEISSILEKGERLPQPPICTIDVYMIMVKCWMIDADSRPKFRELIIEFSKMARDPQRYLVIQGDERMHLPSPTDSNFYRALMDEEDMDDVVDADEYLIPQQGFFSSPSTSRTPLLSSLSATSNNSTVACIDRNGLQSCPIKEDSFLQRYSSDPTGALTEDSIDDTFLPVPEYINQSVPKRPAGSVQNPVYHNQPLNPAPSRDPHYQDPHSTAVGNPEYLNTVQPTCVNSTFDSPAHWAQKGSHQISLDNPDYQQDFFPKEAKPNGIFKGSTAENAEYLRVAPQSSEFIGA
As to the kind of experiment: Inhibition of Epidermal Growth Factor Receptor Kinase (EGF-R) using recombinant enzyme.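 Further: radiometric kinase assay measuring radiolabeled phosphate transfer from ATP onto the peptide tyrosine by scintillation counting, control is reaction without compound, background subtracted, IC50 from dose-response curve.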 The conditions noted are these: recombinant enzyme; RR-SRC peptide; average of the number of tests; read-out: IC50. The class given is biochemical.

Setting [9] is: pH 7.2, radioactive format, read-out: KDR IC50 (converted).
Where [10] appears, read: cell number, Sulforhodamine B, 48 hours exposure.
Setting [11] is: SK-BR-3, cell number, Sulforhodamine B, 48 hours exposure, read-out: IC50 SKBR3.
[12] abbreviates: cell number, Sulforhodamine B, 48 hours exposure, read-out: IC50 SW620.

Values after ≈ are worked out from the molar mass of the structure shown. Values joined by “and” are separate entries in the source; they are usually repeats but may differ in a detail not shown here. Equal entries are not always repeated. Where two headings read alike, the source gives them in different places. Some results are limits rather than exact numbers.

Consider “4-(4-Chloro-2-fluoro-phenylamino)-5,8-dimethoxy-quinoline-3-carbonitrile [Example 238]”, for which the half-inhibitory concentration (IC50) in assay [1] was greater than 100 µM. Besides, the “KDR IC50” value in assay [2] (pH 7.2, radioactive format) is on record as greater than 30 µg/mL.

As to `COc1cc2c(Nc3cc(O)c(Cl)cc3F)c(C#N)cnc2cc1OCCN(C)C` [Example 86, 4-(4-Chloro-2-fluoro-5-hydroxy-phenylamino)-7-(2-dimethylamino-ethoxy)-6-methoxy-quinoline-3-carbonitrile], the IC50 in assay [1] is 1.8 µM and 2 µM; in assay [2] (setting [9]) it was 6.96 µM.

Turning to `COc1cc2c(Nc3cc(O)c(Cl)cc3F)c(C#N)cnc2cc1OCCN1CCOCC1` [Example 87, 4-(4-Chloro-2-fluoro-5-hydroxy-phenylamino)-6-methoxy-7-(2-morpholin-4-yl-ethoxy)-quinoline-3-carbonitrile], in assay [2] (setting [9]), the IC50 was 6.34 µM.

`CCOc1cc2c(Nc3ccc(C)c(O)c3)c(C#N)cnc2cc1OC` [Example 97, 6-Ethoxy-4-(3-hydroxy-4-methylphenylamino)-7-methoxyquinoline-3-carbonitrile]: the 50% inhibitory concentration (IC50) in assay [2] (setting [9]) is 0.286 µM.

With `COc1cc2ncc(C#N)c(Nc3ccc(Cl)cc3F)c2cc1OCCCN1CCOCC1` [Example 127], the figures for the IC50 in assay [1] and in assay [2] were 6 µM and 21.2 µM, respectively.

Regarding `COc1cc2ncc(C#N)c(Nc3ccc(C)c(O)c3)c2cc1OCCCN1CCOCC1` [Example 128], it took 17.8 µM to reach half-maximal inhibition in assay [2] (IC50).

Take `CCOc1cc2ncc(C#N)c(Nc3cccc(Br)c3)c2cc1NC(=O)C=CCN1CCOCC1` [Example 218, 4-Morpholin-4-yl-but-2-enoic acid [4-(3-bromo-phenylamino)-3-cyano-7-ethoxy-quinolin-6-yl]-amide]: the IC50 in assay [3] (SK-BR-3, 48 h, read-out: IC50 SKBR3, cell number, Sulforhodamine B, 48 hours exposure) was 0.029 µg/mL (≈ 0.0541 µM); in assay [4] (read-out: IC50 SW620, cell number, Sulforhodamine B, 48 hours exposure), 1.85 µg/mL (≈ 3.46 µM); in assay [2] (setting [9]) it was greater than 55.9 µM. Also, the “IC50 SKBR3” value in assay [3] (setting [10]) turned out to be 0.047 µg/mL (≈ 0.0876 µM). In addition, the “IC50 SW620” value in assay [4] (setting [10]) is 1.235 µg/mL (≈ 2.3 µM).

In the case of `COc1cc2ncc(C#N)c(Nc3ccc(C)c(O)c3)c2cc1OC` [Example 229, 4-(3-Hydroxy-4-methyl-phenylamino)-6,7-dimethoxy-quinoline-3-carbonitrile], the IC50 was greater than 5 µg/mL in assay [3] (setting [11]); 0.469 µg/mL (≈ 1.4 µM) in assay [5]; less than 1 µM in assay [1]; greater than 5 µg/mL in assay [4] (setting [12]); 0.596 µM in assay [2] (setting [9]).

As for `COc1cc2c(Nc3cccc(N(C)C)c3)c(C#N)cnc2c(OC)c1OC` [Example 232, 4-(3-Dimethylamino-phenylamino)-6.7.8-trimethoxy-quinoline-3-carbonitrile], the IC50 in assay [2] (setting [9]) is greater than 79.3 µM.

With `COc1cc2c(Nc3ccc(C)c(O)c3)c(C#N)cnc2c(OC)c1OC` [Example 233, 4-(3-Hydroxy-4-methyl-phenylamino)-6,7,8-trimethoxy-quinoline-3-carbonitrile], the IC50 in assay [1] is 80 µM; in assay [2] (setting [9]), greater than 82.1 µM.

For `COc1cc2c(Nc3ccc(Cl)cc3F)c(C#N)cnc2c(OC)c1OC` [Example 234, 4-(4-Chloro-2-fluoro-phenylamino)-6,7,8-trimethoxy-quinoline-3-carbonitrile], the IC50 in assay [1] was greater than 100 µM; in assay [2] (setting [9]), greater than 77.4 µM.

As for `COc1ccc(OC)c2c(Nc3ccc(C)c(O)c3)c(C#N)cnc12` [Example 239, 4-(3-Hydroxy-4-methyl-phenylamino)-5,8-dimethoxy-quinoline-3-carbonitrile], the results for the IC50 in assay [1] and in assay [2] (setting [9]) were greater than 100 µM and greater than 89.5 µM, respectively.

`COc1ccc(OC)c2c(Nc3cccc(Br)c3)c(C#N)cnc12` [Example 240, 4-(3-Bromo-phenylamino)-5.8-dimethoxy-quinoline-3-carbonitrile]: the IC50 is 10 µM in assay [1] and greater than 78.1 µM in assay [2] (setting [9]).

As to `COc1ccc(OC)c2c(Nc3cccc(N(C)C)c3)c(C#N)cnc12` [Example 242, 4-(3-Dimethylamino-phenylamino)-5,8-dimethoxy-quinoline-3-carbonitrile], the IC50 in assay [1] is 10 µM; in assay [2] (setting [9]), greater than 86.1 µM.

Regarding `COc1ccc(OC)c2c(Nc3cc(O)c(Cl)cc3F)c(C#N)cnc12` [Example 243, 4-(4-Chloro-2-fluoro-5-hydroxy-phenylamino)-5,8-dimethoxy-quinoline-3-carbonitrile], the 50% inhibitory concentration (IC50) in assay [1] is greater than 100 µM; in assay [2] (setting [9]), greater than 80.3 µM.

For the compound `COc1cc2ncc(C#N)c(Nc3ccc(O)c(Cl)c3)c2cc1OC` [Example 249, 4-(3-Chloro-4-hydroxy-phenylamino)-6,7-dimethoxy-quinoline-3-carbonitrile], the half-maximal inhibitory concentration (IC50) is 15 µM in assay [1] and greater than 28.1 µM in assay [2] (setting [9]).

For the compound `COc1cc2ncc(C#N)c(Nc3ccccc3SC)c2cc1OC` [Example 250, 6,7-Dimethoxy-4-(2-methylsulfanyl-phenylamino)-quinoline-3-carbonitrile], the figures for the IC50 in assay [1] and in assay [2] (setting [9]) were 10 µM and greater than 28.5 µM, respectively.

Turning to `COc1cccc2c(Nc3ccc(Cl)cc3F)c(C#N)cnc12` [Example 275, 4-(4-Chloro-2-fluoro-phenylamino)-8-methoxy-quinoline-3-carbonitrile], the 50% inhibitory concentration (IC50) was greater than 100 µM in assay [1] and greater than 91.5 µM in assay [2] (setting [9]).

As for `COc1cccc2c(Nc3cccc(N(C)C)c3)c(C#N)cnc12` [Example 277, 4-(3-Dimethylamino-phenylamino)-8-methoxy-quinoline-3-carbonitrile], the IC50 is greater than 100 µM in assay [1] and greater than 94.2 µM in assay [2] (setting [9]).

On to `COc1cccc2c(Nc3ccc(Br)c(O)c3)c(C#N)cnc12` [Example 278, 4-(4-Bromo-3-hydroxy-phenylamino)-8-methoxy-quinoline-3-carbonitrile], for which the half-inhibitory concentration (IC50) in assay [1] was greater than 100 µM; in assay [2] (setting [9]), greater than 81 µM.

Regarding `COc1ccc(Nc2c(C#N)cnc3c(OC)cccc23)cc1O` [Example 279, 4-(3-Hydroxy-4-methoxy-phenylamino)-8-methoxy-quinoline-3-carbonitrile], the IC50 in assay [1] was greater than 100 µM; in assay [2] (setting [9]) it was greater than 93.4 µM.

On to `COc1cccc2c(Nc3c(F)cc(F)cc3F)c(C#N)cnc12` [Example 280, 8-Methoxy-4-(2,4,6-trifluoro-phenylamino)-quinoline-3-carbonitrile], for which the values for the concentration for half-maximal inhibition (IC50) in assay [1] and in assay [2] (setting [9]) were greater than 100 µM and greater than 91.1 µM, respectively.

For the compound `COc1cc2ncc(C#N)c(Nc3cc(Cl)ccc3O)c2cc1OC` [Example 290, 4-(5-Chloro-2-hydroxy-phenylamino)-6,7-dimethoxy-quinoline-3-carbonitrile], the IC50 was 3 µM in assay [1] and 28.1 µM in assay [2] (setting [9]).

In the case of `COc1cc2ncc(C#N)c(Nc3cc(Br)c(O)c(Br)c3)c2cc1OC` [Example 291, 4-(3,5-Dibromo-4-hydroxy-phenylamino)-6,7-dimethoxy-quinoline-3-carbonitrile], the IC50 in assay [1] was greater than 100 µM; in assay [2] (setting [9]) it was 20.9 µM.

With `COc1cc2ncc(C#N)c(Nc3cc(C)ccc3O)c2cc1OC` [Example 295, 4-(2-Hydroxy-5-methyl-phenylamino)-6,7-dimethoxy-quinoline-3-carbonitrile], the concentration for half-maximal inhibition (IC50) in assay [1] was 50 µM; in assay [2] (setting [9]), 29.8 µM.

Consider `N#Cc1cnc2ccc(NC(=O)C#CCO)cc2c1Nc1cccc(Br)c1` [Example 332], for which the IC50 in assay [6] was 54.9 µg/mL (≈ 130 µM); in assay [3] (setting [11]) it was 0.08 µg/mL (≈ 0.19 µM); in assay [5] it was 0.6 µg/mL (≈ 1.42 µM); in assay [7], 0.51 µg/mL (≈ 1.21 µM); in assay [1], 25 µM and < 50 µM; in assay [8], 0.0009 µM. For the same compound, the 50% inhibitory concentration (IC50) in assay [4] (setting [12]) came to 0.44 µg/mL (≈ 1.04 µM).

Regarding `N#Cc1cnc2ccc(NCCCN3CCCC3)cc2c1Nc1cccc(Br)c1` [Example 358, 4-(3-Bromo-phenylamino)-6-(3-pyrrolidin-1-yl-propylamino)-quinoline-3-carbonitrile], the IC50 in assay [6] stood at 7.8 µg/mL (≈ 17.3 µM); in assay [3] (setting [11]) it was 0.7 µg/mL (≈ 1.55 µM); in assay [5] it was 0.5 µg/mL (≈ 1.11 µM); in assay [7], 2.5 µg/mL (≈ 5.55 µM); in assay [1] it was 18 µM; in assay [8], 0.1 µM. Besides, the IC50 in assay [4] (setting [12]) was 4.1 µg/mL (≈ 9.1 µM).

In the case of `CSc1cccc(Nc2c(C#N)cnc3ccc(N)cc23)c1` [Example 363, 6-Amino-4-[(3-methylsulfanylphenyl)amino]-3-quinolinecarbonitrile], the IC50 in assay [6] is 0.8 µg/mL (≈ 2.61 µM); in assay [3] (setting [11]), 0.06 µg/mL (≈ 0.196 µM); in assay [5], 0.07 µg/mL (≈ 0.228 µM); in assay [7] it was 0.08 µg/mL (≈ 0.261 µM); in assay [1], 25 µM; in assay [8], 0.1 µM. The half-inhibitory concentration (IC50) in assay [4] (setting [12]) turned out to be 0.08 µg/mL (≈ 0.261 µM).

The term IC50 denotes the concentration that gives 50% inhibition.

For the origin of these results see patent EP0973746B1, “SUBSTITUTED 3-CYANO QUINOLINES” (Wyeth Holdings Corporation, priority 1997, dated 1998).
